Laboratory results as given in PMC9562916, “Investigation of the Phenolic Component Bioavailability Using the In Vitro Digestion/Caco-2 Cell Model, as well as the Antioxidant Activity in Chinese Red Wine” (Foods, 2022).
Like-named read-outs stand apart in the source and are kept apart here. Marks after values point to notes of the source that are not given here.

Assays:
Caco-2 cell monolayer = assay: Caco-2 transepithelial transport assay of digested red wine; assay type: in vitro ADME, human; conditions: digested sample, basolateral side of Caco-2 monolayer
Method: (§1) Caco-2 cells were inoculated following the method of Hubatsch et al. […] Briefly, a 5% v/v of CO2 incubator at 37 °C was used to house the cells. […] Caco-2 cells were sub-cultured when they reached 80-90% of the adherent growth by treating them with a 0.05% v/v of trypsin-EDTA solution. The culture between passages 35 and 40 was used for the following experiment. Transport experiments were performed according to the method of Wu et al. with slight modifications. First, 1.0 × 10^5 Caco-2 cells were inoculated onto 12 mm transparent cell culture plates (Transwell). Media were carefully injected into the apical (0.5 mL) and basolateral (1.5 mL) sides of the Transwell plates. The cell culture medium had to be replaced every other day until the cells formed a monolayer. The integrity and transport ability of the Caco-2 cell monolayer were evaluated by measuring the trans-epithelial electrical resistance (TEER) with a MilliCell voltammeter (Millicell ERS-2, Merck Millipore, Billerica, MA, USA). […] When the cell activity exceeded 0.9, a transport experiment was conducted. The apical side was injected with a digested red wine sample (0.5 mL) and was thoroughly mixed with […] Balanced Salt Solution (HBSS) buffer solution. […] The cells were then cultured in a 37 °C, 5% CO2 incubator. Then, 0.25 mL samples were separately taken from the basolateral side of the monolayer. An equal volume of HBSS buffer was then added every half hour from the beginning of the culture until the end of the culture at 6 h. The collected samples were subsequently filtered and placed in the sample bottle for further HPLC analysis. This experiment was repeated several times to collect enough samples for the next antioxidant test. […] The Agilent 1100 series HPLC instrument was used; it was equipped with a degasser, quaternary pump solvent delivery, a DAD system, and a single quadrupole mass detector coupled with an electrospray ionization LC-MS interface. […] The column temperature was kept at 30 °C, the injection volume was 10 μL, and the flow rate was 0.3 mL/min. The eluents were water and formic acid in a 99:1 (v/v) (A) ratio and 100% acetonitrile (B). The gradient elution procedure was as follows: (1) 3% B solvent at 0 min, (2) 3 to 16% B solvent at 10 min, (3) 16 to 20% B solvent at 30 min, and (4) 20% B solvent maintained until the procedure was completed. The MS configuration was as follows: ESI, negative ion mode, nebulizer pressure of 30 psi, a dry gas flow rate of 10 mL/min, dry gas temperature of 350 °C, and a scan rate of 100~1200 m/z. PCs were determined according to their retention times, UV/VIS spectra, and high-resolution MS spectra, in addition to a comparison with the standards. […] If a standard was unavailable, a structurally related compound was used. Putative annotations were made using spectral features and literature information on the chromatographic properties and mass spectra records from the metabolome database. A standard curve was drawn using methanol solutions with different concentrations as the standards. […] PCs All of the samples were determined in triplicate.

[1] = as above; assay type: in vitro ADME, human; conditions: human, Caco-2, apical to basolateral
Method: as §1

[2] = PC content of red wine before and after in vitro simulated gastrointestinal digestion (HPLC); assay type: in vitro ADME
Method: The digestion procedure was carried out by adapting the method of Brodkorb et al. and Gómez et al.. […] One milliliter (50 units/mL) of porcine amylase was prepared in a 15 mM Na₃PO₄ buffer solution (pH adjusted to 6.8) containing 1.5 mM CaCl2, and it was added to the red wine solution. After 5 min, 4.5 mL of 0.12 M HCl was added to the mixture to adjust the pH to 2.4. One milliliter of porcine pepsin (0.02 mg/L) was dissolved in a 20 mM HCl solution. The mixture was then maintained at 37 °C for 120 min. The digestion mixture was then centrifuged at 8000× g for 15 min to obtain samples from the gastric digestion phase. […] The mixture was incubated at pH 6.5 at 37 °C for 3 h before being centrifuged. The extracts of the intestinal phase were the supernatants. The same operation was done three times, and each sample was stored in a refrigerator (−20 °C) immediately for further analysis.
The Pati method was adopted, with slight modifications, to measure the content of the PCs. The Agilent 1100 series HPLC instrument was used; it was equipped with a degasser, quaternary pump solvent delivery, a DAD system, and a single quadrupole mass detector coupled with an electrospray ionization LC–MS interface. Briefly, th samples were injected into a Zorbax SB C18 reversed-phase column (5 µm,150 × 2.1 mm, Agilent Technologies, Santa Clara, CA, USA) using an autosampler after filtering through 0.45 µm cellulose acetate syringe filters. The column temperature was kept at 30 °C, the injection volume was 10 µL, and the flow rate was 0.3 mL/min. The eluents were water and formic acid in a 99:1 (v/v) (A) ratio and 100% acetonitrile (B). […] The MS configuration was as follows: ESI, negative ion mode, nebulizer pressure of 30 psi, a dry gas flow rate of 10 mL/min, dry gas temperature of 350 °C, and a scan rate of 100~1200 m/z. PCs were determined according to their retention times, UV/VIS spectra, and high-resolution MS spectra, in addition to a comparison with the standards. […] Putative annotations were made using spectral features and literature information on the chromatographic properties and mass spectra records from the metabolome database. A standard curve was drawn using methanol solutions with different concentrations as the standards. The limits of detection and quantitation were calculated according to the signal-to-noise ratio (limit of detection: signal-to-noise ratio ≥ 3; limit of quantitation: signal-to-noise ratio ≥ 10). […] PCs All of the samples were determined in triplicate.

Compound: O=c1c(O[C@@H]2O[C@H](CO)[C@@H](O)[C@H](O)[C@H]2O)c(-c2ccc(O)c(O)c2)oc2cc(O)cc(O)c12 [Isoquercetin]
- PC Contents, Cabernet, Transmembrane (Caco-2 cell monolayer; Cabernet red wine): 0.83 ± 0.04 ^a mg/L
- PC Contents, Helanshan, Transmembrane (Caco-2 cell monolayer; Helanshan red wine): 0.72 ± 0.04 ^a mg/L
- PC Contents, Tianzhu, Transmembrane (Caco-2 cell monolayer; Tianzhu red wine): 3.81 ± 0.18 ^a mg/L
- Papp at 6 h ([1]; digested Cabernet red wine, read-out: Apparent Permeability Coefficients, Cabernet): 3.84 ± 0.29 ×10⁻⁶ cm/s
- Papp at 6 h ([1]; digested Helanshan red wine, read-out: Apparent Permeability Coefficients, Helanshan): 3.73 ± 0.27 ×10⁻⁶ cm/s
- Papp at 6 h ([1]; digested Tianzhu red wine, read-out: Apparent Permeability Coefficients, Tianzhu): 3.87 ± 0.23 ×10⁻⁶ cm/s
- PC Contents, Cabernet, After Digestion ([2]; Cabernet red wine, after simulated gastrointestinal digestion): 13.46 ± 0.59 ^b mg/L
- PC Contents, Helanshan, After Digestion ([2]; Helanshan red wine, after simulated gastrointestinal digestion): 12.01 ± 0.37 ^b mg/L
- Increase in content after digestion ([2]; Tianzhu red wine, after digestion vs undigested): 9.8%
- PC Contents, Tianzhu, After Digestion ([2]; Tianzhu red wine, after simulated gastrointestinal digestion): 19.13 ± 0.69 ^b mg/L
